Reference: patent publication US10059674B2, “Design, synthesis, and biological evaluation of 1-methyl-1, 4-dihyrdoindeno[1,2-C]pyrazole analogues as potential anticaner agents targeting tubulin colchicine binding site” (ACT PHARMA CO., LTD., priority 2016, dated 2018)
Read-outs that look alike come from different tables or passages of the source.

How the values were obtained:
[1] = dog, microsomes, 1 µM, pH 7.47
[2] = In vivo pharmacokinetic test, drug concentration in blood plasma by LC-MS/MS; set-up: species or system SD rats; details: for Drug concentration in blood plasma / concentration at 0.25 h / concentration at 0.5 h / concentration at 1 h / concentration at 8 h / concentration at 24 h / concentration at 0.08 h / concentration at 2 h / concentration at 4 h: SD rats; for Drug concentration in blood plasma / concentration at 24 h: 24 h; for concentration at 0.25 h / concentration at 0.5 h / concentration at 1 h / concentration at 8 h / concentration at 24 h / concentration at 0.08 h / concentration at 2 h / concentration at 4 h / AUC(0-t) / Cmax / AUC(0-inf) / clearance / MRT inf / Vd / Vd/F: SD; for concentration at 0.25 h / concentration at 0.5 h / concentration at 1 h / concentration at 8 h / concentration at 24 h / concentration at 0.08 h / concentration at 2 h / concentration at 4 h / AUC(0-t) / Cmax / AUC(0-inf) / clearance / MRT inf / Vd / Vd/F / Tmax: rat, plasma; for HL_Lambda_z / Cl—F—pred / F / AUC(0-t) / Cmax / AUC(0-inf) / clearance / MRT inf / Vd / Vd/F / Tmax: male SD rats; for AUC(0-inf): read-out: AUCINF—pred; for clearance: read-out: Cl—pred (converted); for MRT inf: read-out: MRTINF—pred; for Vd: read-out: Vz—pred; for Vd/F: read-out: Vz—F—pred
Description: 2. Test animal: SD rats, which are 284-304 g before the test, and bought from Shanghai Xipuer-Bikai laboratory animal Co., Ltd. with production license No. SCXK (Hu) 2013-0016, and laboratory animal certificate Nos. 2008001658223 and 2008001658296.
2.85 mg of compound LL-01 is weighed, and then put into a glass bottle; 0.687 mL of DMSO is added into the glass bottle, and ultrasonic treatment is carried out for 2 min; next, 2.062 mL of Solutol HS 15 is added thereto, and ultrasonic treatment is carried out for 4 min; and then 10.995 mL of PBS is added thereto, and ultrasonic treatment is carried out for 8 min after eddying. This test substance is numbered 20160324-RW-01, 12.74 mg of compound LL-01 is weighed, and then put into a glass bottle; 0.614 mL of DMSO is added into the glass bottle, and ultrasonic treatment is carried out for 2 min; next, 1.843 mL of Solutol HS 15 is added thereto, and ultrasonic treatment is carried out for 4 min; and then 9.830 mL of PBS is added thereto, and ultrasonic treatment is carried out for 8 min after eddying. This test substance is numbered 20160324-RW-02,
The dosage of intravenous administration is 1 mg/kg, while the dosage of oral administration is 10 mg/kg. A night of fasting is required before administration, and feeding should be carried out 4 hours later after administration.
Blood is collected (about 150-200 uL) at every time points of 0.083 (only vein), 0.25, 0.5, 1, 2, 4, 8, and 24 hours after administration through orbital venous plexus puncture into EDTA-K2 (20%, and 2 μL) anticoagulant tubes, respectively; the blood samples are centrifuged 8 min at 6000 rpm in 1 h (placed on wet ice before being centrifuged), and the supernatant, namely blood plasma is put into −20° C. low-temperature conservation for LC-MS/MS analysis later.
The content of compound LL-01 in SD rat blood plasma is detected by use of LC-MS/MS method.
Computer program Microsoft Office Excel 2007 (Microsoft, USA) is used for data processing, and drawing. A statistical moment method of WinNolin 6.4 processing software is used to calculate pharmacokinetic parameters.

[3] = po, 10 mg/kg, oral 10 mg/kg, Mean
[4] = po, 10 mg/kg, oral 10 mg/kg, animal 201M
[5] = po, 10 mg/kg, oral 10 mg/kg, animal 202M
[6] = po, 10 mg/kg, oral 10 mg/kg, animal 203M
[7] = single intravenous 1 mg/kg, animal 101M
[8] = single oral 10 mg/kg, animal 201M
[9] = single oral 10 mg/kg, animal 202M
[10] = single oral 10 mg/kg, animal 203M
[11] = male, iv, 1 mg/kg, intravenous 1 mg/kg, Mean
[12] = male, iv, 1 mg/kg, intravenous 1 mg/kg, animal 101M
[13] = male, iv, 1 mg/kg, intravenous 1 mg/kg, animal 102M
[14] = male, iv, 1 mg/kg, intravenous 1 mg/kg, animal 103M
[15] = male, iv, 1 mg/kg, single intravenous 1 mg/kg, Mean
[16] = male, iv, 1 mg/kg, single intravenous 1 mg/kg, animal 101M
[17] = male, iv, 1 mg/kg, single intravenous 1 mg/kg, animal 102M
[18] = male, iv, 1 mg/kg, single intravenous 1 mg/kg, animal 103M
[19] = male, po, 10 mg/kg, oral 10 mg/kg, Mean
[20] = male, po, 10 mg/kg, oral 10 mg/kg, animal 201M
[21] = male, po, 10 mg/kg, oral 10 mg/kg, animal 202M
[22] = male, po, 10 mg/kg, oral 10 mg/kg, animal 203M
[23] = male, po, 10 mg/kg, single oral 10 mg/kg, Mean
[24] = male, po, 10 mg/kg, single oral 10 mg/kg, animal 201M
[25] = male, po, 10 mg/kg, single oral 10 mg/kg, animal 202M
[26] = male, po, 10 mg/kg, single oral 10 mg/kg, animal 203M

Remainder ([1]; 0 h): 100.00% | Remainder ([1]; 10 min): 74.20% | Remainder ([1]; 0.5 h): 38.61% | Remainder ([1]; 1.5 h): 7.93% | Drug concentration in blood plasma ([2]; intravenous 1 mg/kg, animal 101M): BLQ | Drug concentration in blood plasma ([2]; intravenous 1 mg/kg, animal 102M): BLQ | Drug concentration in blood plasma ([2]; intravenous 1 mg/kg, animal 103M): BLQ | concentration at 0.25 h [2, 3]: 280 ng/mL | concentration at 0.25 h [2, 4]: 159 ng/mL | concentration at 0.25 h [2, 5]: 466 ng/mL | concentration at 0.25 h [2, 6]: 216 ng/mL | concentration at 0.5 h [2, 3]: 558 ng/mL | concentration at 0.5 h [2, 4]: 374 ng/mL | concentration at 0.5 h [2, 5]: 959 ng/mL | concentration at 0.5 h [2, 6]: 339 ng/mL | concentration at 1 h [2, 3]: 917 ng/mL | concentration at 1 h [2, 4]: 869 ng/mL | concentration at 1 h [2, 5]: 1100 ng/mL | concentration at 1 h [2, 6]: 778 ng/mL | concentration at 8 h [2, 3]: 604 ng/mL | concentration at 8 h [2, 5]: 916 ng/mL | concentration at 8 h [2, 6]: 446 ng/mL | concentration at 24 h [2, 3]: 26.9 ng/mL | concentration at 24 h [2, 4]: 46.8 ng/mL | concentration at 24 h [2, 5]: 17.4 ng/mL | concentration at 24 h [2, 6]: 16.6 ng/mL | HL_Lambda_z ([2]; single intravenous 1 mg/kg, Mean): 1.00 h | HL_Lambda_z [2, 7]: 1.06 h | HL_Lambda_z ([2]; single intravenous 1 mg/kg, animal 102M): 1.00 h | HL_Lambda_z ([2]; single intravenous 1 mg/kg, animal 103M): 0.94 h | Cl—F—pred ([2]; single oral 10 mg/kg, Mean): 14.3 mL/min/kg | F ([2]; single oral 10 mg/kg, Mean): 41.02% | HL_Lambda_z ([2]; single oral 10 mg/kg, Mean): 3.60 h | Cl—F—pred [2, 8]: 15.2 mL/min/kg | F [2, 8]: 35.12% | HL_Lambda_z [2, 8]: 4.35 h | Cl—F—pred [2, 9]: 9.33 mL/min/kg | F [2, 9]: 58.28% | HL_Lambda_z [2, 9]: 2.95 h | Cl—F—pred [2, 10]: 18.3 mL/min/kg | F [2, 10]: 29.66% | HL_Lambda_z [2, 10]: 3.50 h | concentration at 0.08 h [2, 11]: 2600 ng/mL | concentration at 0.08 h [2, 12]: 2720 ng/mL | concentration at 0.08 h [2, 13]: 2400 ng/mL | concentration at 0.08 h [2, 14]: 2690 ng/mL | concentration at 0.25 h [2, 11]: 1950 ng/mL | concentration at 0.25 h [2, 12]: 2020 ng/mL | concentration at 0.25 h [2, 13]: 1920 ng/mL | concentration at 0.25 h [2, 14]: 1910 ng/mL | concentration at 0.5 h [2, 11]: 1630 ng/mL | concentration at 0.5 h [2, 12]: 1760 ng/mL | concentration at 0.5 h [2, 13]: 1390 ng/mL | concentration at 0.5 h [2, 14]: 1720 ng/mL | concentration at 1 h [2, 11]: 884 ng/mL | concentration at 1 h [2, 12]: 876 ng/mL | concentration at 1 h [2, 13]: 842 ng/mL | concentration at 1 h [2, 14]: 934 ng/mL | concentration at 2 h [2, 11]: 428 ng/mL | concentration at 2 h [2, 12]: 398 ng/mL | concentration at 2 h [2, 13]: 372 ng/mL | concentration at 2 h [2, 14]: 512 ng/mL | concentration at 4 h [2, 11]: 82.5 ng/mL | concentration at 4 h [2, 12]: 87.6 ng/mL | concentration at 4 h [2, 13]: 67.1 ng/mL | concentration at 4 h [2, 14]: 92.8 ng/mL | concentration at 8 h [2, 11]: 7.8 ng/mL | concentration at 8 h [2, 12]: 8.6 ng/mL | concentration at 8 h [2, 13]: 9.1 ng/mL | concentration at 8 h [2, 14]: 5.6 ng/mL | AUC(0-t) [2, 15]: 3030 ng·h/mL | Cmax [2, 15]: 2600 ng/mL | AUC(0-inf) [2, 15]: 3040 ng·h/mL | clearance [2, 15]: 5.5 mL/min/kg | MRT inf [2, 15]: 1.18 h | Vd [2, 15]: 0.48 L/kg | AUC(0-t) [2, 16]: 3090 ng·h/mL | Cmax [2, 16]: 2720 ng/mL | AUC(0-inf) [2, 16]: 3100 ng·h/mL | clearance [2, 16]: 5.33 mL/min/kg | MRT inf [2, 16]: 1.17 h | Vd [2, 16]: 0.49 L/kg | AUC(0-t) [2, 17]: 2740 ng·h/mL | Cmax [2, 17]: 2400 ng/mL | AUC(0-inf) [2, 17]: 2750 ng·h/mL | clearance [2, 17]: 6 mL/min/kg | MRT inf [2, 17]: 1.16 h | Vd [2, 17]: 0.53 L/kg | AUC(0-t) [2, 18]: 3270 ng·h/mL | Cmax [2, 18]: 2690 ng/mL | AUC(0-inf) [2, 18]: 3280 ng·h/mL | clearance [2, 18]: 5 mL/min/kg | MRT inf [2, 18]: 1.21 h | Vd [2, 18]: 0.41 L/kg | concentration at 2 h [2, 19]: 920 ng/mL | concentration at 2 h [2, 20]: 675 ng/mL | concentration at 2 h [2, 21]: 1280 ng/mL | concentration at 2 h [2, 22]: 801 ng/mL | concentration at 4 h [2, 19]: 1280 ng/mL | concentration at 4 h [2, 20]: 1310 ng/mL | concentration at 4 h [2, 21]: 1720 ng/mL | concentration at 4 h [2, 22]: 814 ng/mL | concentration at 8 h [2, 20]: 451 ng/mL | AUC(0-t) [2, 23]: 12400 ng·h/mL | Cmax [2, 23]: 1280 ng/mL | AUC(0-inf) [2, 23]: 12600 ng·h/mL | MRT inf [2, 23]: 6.14 h | Vd/F [2, 23]: 4.57 L/kg | AUC(0-t) [2, 24]: 10700 ng·h/mL | Cmax [2, 24]: 1310 ng/mL | AUC(0-inf) [2, 24]: 10900 ng·h/mL | MRT inf [2, 24]: 6.58 h | Vd/F [2, 24]: 5.74 L/kg | AUC(0-t) [2, 25]: 17700 ng·h/mL | Cmax [2, 25]: 1720 ng/mL | AUC(0-inf) [2, 25]: 17800 ng·h/mL | MRT inf [2, 25]: 5.87 h | Vd/F [2, 25]: 2.4 L/kg | AUC(0-t) [2, 26]: 9000 ng·h/mL | Cmax [2, 26]: 814 ng/mL | AUC(0-inf) [2, 26]: 9080 ng·h/mL | MRT inf [2, 26]: 5.96 h | Vd/F [2, 26]: 5.57 L/kg | Tmax [2, 7]: 0.08 h | Tmax [2, 8]: 4 h
Structure (SMILES): CCOc1cccc(Nc2nn(C)c3c2Cc2cc(OCC)c(OCC(N)=O)cc2-3)c1 [LL-01]
